By EC50 is commonly meant the midpoint of the concentration-response curve.

This note sets out measurements from patent US9139543B2, “Thiazole compounds and uses thereof” (Institute of Pharmacology and Toxicology Academy of …, priority 2012, dated 2015).

In the test the test system is myocardial cells. Put plainly: Activity of preventing cardiomyocyte apoptosis induced by TM (MTT cell survival). In kind it is cell-based, Neonatal Wistar rats. The note with it: primary neonatal rat myocardial cells; for EC50: Cardiomyocyte, compound 30 min before TM 0.5 μg/ml, 48 h, read-out: Protection effects against cardiomyocyte apoptosis induced by TM, EC50. As to the method: Neonatal Wistar rats newborn within 24 h, not confined to female or male (provided by the Center of Laboratory Animals, Academy of Military Medical Science of the PLA, animal certificate No.: SCXK-( ? ) 2007-004). High-sugar DMEM culture medium, trypsinase, and type II collagenase purchased from Gibco Company; fetal bovine serum (FBS) purchased from Beijing Yuanhengshengma Biological Technology Institute; 5-bromo-2-deoxyuridine (5-Brdu), tunicamycin (TM) purchased from Sigma Company; thiazolyl blue (MTT), dimethyl sulfoxide (DMSO) which is the product of Amresco; other chemical agents were all analytical pure and made in China. Universal Microplate ReaderEL800 type of ELIASA was a product of BIO-TEK Company of US.
neonatal Wistar rats newborn within 24 h were used, skin of abdomen was sterilized with iodine and alcohol. Tissue of ventricular apex was taken out with aseptic operation, cut into pieces with 1 mm^3 size, added with suitable amount of 0.125% pancretin and 0.1% collagenase II (final concentration was respectively 0.1% and 0.02%), mechanical shaking in 37° C. water-bath, 10 min each time, digested repeatedly until the tissue pieces were completely digested. The prepared myocardial cell suspension was inoculated in a 75 cm^2 culture flask. Non-myocardial cells were removed by differential adhesion method. The myocardial cell density was adjusted with DMEM culture medium containing 10% FBS, inoculated to a 96-well plate in an amount of 10^4/ml, placed in 5% CO2 incubator at 37° C. for 24 h for primary culture. Half medium was replaced after 24 h, a culture medium containing 0.1% 5-Brdu (5-bromo-2-deoxyuridine) was replenished to inhibit the growth of non-myocardial cells. The medium was replaced once per 48 h for primary culture.
Measurement of compound activity: myocardial cells were cultured for 4 days, respectively treated with compound in different concentrations (0.3 μM, 1 μM, 3 μM) for 30 min, then added with TM to final concentration of 0.5 μg/ml (TM group with final concentration of 0.5 μg/ml and solvent control group (DMSO) were set at the same time), and placed in 37° C., 5% CO2 incubator and cultured for 48 h, then each well was added with 10 μl of MTT (5 mg/ml) and continuously incubated for 4 h, finally each well was added with 100 μL of 10% SDS, incubated at 37° C., 5% CO2 for 24 h, so that MTT crystal was completely dissolved. ELISA was used to measure light absorbance of each well under 550 nm wavelength, in which TM and the compound of the present invention were formulated with DMSO. The formula is: cell survival rate (%)=OD value of administration group/average OD value of solvent control well×100%. The results were expressed in x±SD, and EC50 values (Table 1) were calculated with software, so that the effect of compound of the present invention preventing cardiomyocyte apoptosis induced by TM was determined.

Take `COc1ccc(-c2nc(NC(NC(=O)/C=C/c3ccccc3)C(Cl)(Cl)Cl)sc2-c2ccccc2)cc1` (stereo not shown) [Example 1]: the EC50 was 100 µM. On the same count and under the same terms, to `O=C(/C=C/c1ccccc1)NC(Nc1nc(-c2ccccc2)c(-c2ccccc2)s1)C(Cl)(Cl)Cl` (stereo not shown) [Example 2] belongs 47 µM. As to `COc1ccc(-c2csc(NC(NC(=O)/C=C/c3ccccc3)C(Cl)(Cl)Cl)n2)cc1` (stereo not shown) [Example 3, (2E)-3-(2-phenyl)-N-[1-(4-methoxyphenyl-2-thiazolyl)-2,2,2-trichloroethyl]-2-acrylamide], the EC50 was found to be 61 µM. `O=C(/C=C/c1ccccc1)NC(Nc1nc(-c2ccc(F)cc2F)cs1)C(Cl)(Cl)Cl` (stereo not shown) [Example 4, (2E)-3-(2-phenyl)-N-[1-(2,4-difluorophenyl-2-thiazolyl)-2,2,2-trichloroethyl]-2-acrylamide]: the EC50 is 0.8 µM.

For the molecule `O=C(/C=C/c1ccccc1)NC(Nc1nc(-c2ccc(Cl)cc2)cs1)C(Cl)(Cl)Cl` (stereo not shown) [Example 5, (2E)-3-(2-phenyl)-N-[1-(4-chlorophenyl-2-thiazolyl)-2,2,2-trichloroethyl]-2-acrylamide], the EC50 was determined as 0.3 µM. Further, under “TM 0.5 μg/ml”, the “Protection effects against cardiomyocyte apoptosis induced by TM (in words)” value is reported as “good protection effects”. For `O=C(/C=C/c1ccccc1)NC(Nc1nc(-c2ccccc2)cs1)C(Cl)(Cl)Cl` (stereo not shown) [Example 6], the EC50 was found to be 30 µM.
